Results: patent US20210369623A1, “COMPOSITION THAT FORMS LIQUID CRYSTALLINE PARTICLES” (Zeenar Enterprises Pty Ltd, priority 2018, published 2021)

Key:
[1] = SAXS of mixtures of GMO and excipient/active ingredient immersed in PBS (liquid crystal phase and lattice size); type: physicochemical; design: lamella phase lattice size: unit not given here; conditions: for Threshold (minimum amount of ingredient required to increase the water channel size): % w/w of ingredient in GMO; for Phase structure: PBS buffer pH 6.8, ~22° C.; for Concentration at which V2(Pn3m) lattice size increased / Concentration of transformation/transition in liquid crystalline structure: concentration in GMO; for Concentration of transformation/transition in liquid crystalline structure: change to structure with larger water channels (e.g. Im3m)
Description: The samples were then mixed via a roller mixer at ˜10 RPM at 40° C. for at least 3 days.
One week prior to SAXS experiment, 100 mg samples were loaded into a transparent polystyrene 96 well plate (Nunc™) and immersed in 200 μL of PBS buffer (pH 6.8). The samples were stored away from light at ambient temperature, to allow the samples to reach equilibrium.
The SAXS/WAXS beamline at Australian Synchrotron, Melbourne, Australia was used to determine the liquid crystalline nanostructure in the samples.
A custom-designed plate holder was used to mount the samples plate directly onto the SAXS/WAXS beamline. Scans were automated using a pre-loaded set of position variables based on the well positions within the plate, the exposure time was 5 sec.
Data were obtained at ambient temperature (˜22° C.). […] The 2-D diffraction images were recorded on a Pilatus 1M detector and radially integrated using the in-house software “ScatterBrain”.

[2] = cited from earlier work
[3] = In vitro release/permeation through porcine buccal mucosa in modified Ussing chamber (rosuvastatin, oxycodone, atorvastatin); conditions: not yet tested
[4] = Concentration in GMO 1%, first value of the cell (first phase listed)
[5] = Concentration in GMO 5%, first value of the cell (first phase listed)
[6] = Concentration in GMO 10%, first value of the cell (first phase listed)
[7] = Concentration in GMO 10%, second value of the cell (second phase)
[8] = Concentration in GMO 20%, first value of the cell (first phase listed)
[9] = Concentration in GMO 15%, first value of the cell (first phase listed)
[10] = Concentration in GMO 15%, second value of the cell (second phase)

Row | Compound | Threshold (minimum amount of ingredient required to increase the water channel size) [1] | Phase structure ([1]; Concentration in GMO 1%) | Lattice size [1, 4] [Å] | Phase structure ([1]; Concentration in GMO 5%) | Lattice size [1, 5] [Å] | Phase structure ([1]; Concentration in GMO 10%) | Lattice size [1, 6] [Å] | Concentration at which V2(Pn3m) lattice size increased [1] | Concentration of transformation/transition in liquid crystalline structure [1] | Lattice size [1, 7] [Å] | Phase structure ([1]; Concentration in GMO 15%) | Lattice size [1, 9] [Å] | further results
1 | O=S(=O)([O-])NC1CCCCC1.[Na+] [Sodium cyclamate] | 3-5% | V2(Pn3m) | 93.1 | V2(Pn3m) | 103 | V2(Pn3m) + other | 113 | 5-10% | – | – | – | – | –
2 | OC[C@@H](O)[C@@H](O)[C@H](O)[C@@H](O)CO [Sorbitol] | – | – | – | – | – | – | – | – | – | – | – | – | V2(Pn3m) lattice size ([1]; ingredient 1 to 50% in GMO): 83 to 92 Å; V2(Ia3d) lattice size ([1]; ingredient at 1% in GMO, blended with V2(Pn3m)): about 138 nm; impact on the GMO cubic structure formed ([1]; tablet excipient mixed with GMO): minimal impact
3 | O=C1NS(=O)(=O)c2ccccc21.[Na] [Saccharin sodium] | 3-5% | V2(Pn3m) | 95.4 | V2(Pn3m) | 107 | V2(Pn3m) + others | 120 | 5-10% | – | – | – | – | –
4 | CCCCCCCCCCCCOS(=O)(=O)[O-].[Na+] [SLS, sodium lauryl sulphate] | 3-5% or about 5%. SLS was also tested in SBT137 and shown to increase | V2(Pn3m) | 95.4 | V2(Pn3m) | 116 | V2(Pn3m) | 133 | – | with large water channels. Transition at about 50%. | – | – | – | –
5 | Magnesium stearate | – | – | – | – | – | – | – | – | – | – | – | – | V2(Pn3m) lattice size ([1]; ingredient 1-20% in GMO): 93 to 95 Å; lamella phase lattice size ([1]; ingredient at 5-30% in GMO): 50; H2 lattice size ([1]; ingredient at 30% in GMO): 62 nm
6 | CCCCCCCC/C=C\CCCCCCCC(=O)OCCOCC(OCCO)C1OCC(OCCO)C1OCCO (stereo not drawn) [Tween 80] | size from an ODT. A threshold of 8-10% or about 10%. | V2(Pn3m) | 91.9 | V2(Pn3m) | 97.9 | V2(Pn3m) | 106 | Tween 80 - V2(Pn3m) lattice size increased at 10-20%. | Transformation in structure by about 20%. | 139 | – | – | Phase structure ([1]; Concentration in GMO 20%): V2(Pn3m) + V2(Im3m); Lattice size [1, 8]: 138 Å; Lattice size ([1]; Concentration in GMO 20%, second value of the cell (second phase)): 172 Å
7 | Ibuprofen lysine | 3-5% | V2(Pn3m) | 88.9 | V2(Pn3m) | 105 | V2(Pn3m) + V2(Ia3d) | 131 | 5-10% | Transformation in structure by about 10%. | 189 | Lα + V2(Ia3d) | 80.7 | Lattice size [1, 10]: 198 Å
8 | CC(C)c1c(C(=O)Nc2ccccc2)c(-c2ccccc2)c(-c2ccc(F)cc2)n1CC[C@@H](O)C[C@@H](O)CC(=O)O [Atorvastatin] | 8-10% | V2(Pn3m) | 93.1 | V2(Pn3m) | 99.2 | V2(Pn3m) | 105 | 10-35% | – | – | V2(Pn3m) | 101 | Phase structure ([1]; Concentration in GMO 20%): V2(Pn3m); Lattice size [1, 8]: 103 Å; Phase structure ([1]; Concentration in GMO 25%): V2(Pn3m); Lattice size ([1]; Concentration in GMO 25%, first value of the cell (first phase listed)): 102 Å; Phase structure ([1]; Concentration in GMO 35%): V2(Pn3m); Lattice size ([1]; Concentration in GMO 35%, first value of the cell (first phase listed)): 105 Å
9 | CC(C)c1nc(N(C)S(C)(=O)=O)nc(-c2ccc(F)cc2)c1/C=C/[C@@H](O)C[C@@H](O)CC(=O)O [Rosuvastatin] | A threshold of 3-5% or about 5%. Transformation in structure | V2(Pn3m) | 84.2 | V2(Pn3m) | 109 | V2(Pn3m) | 109 | Rosuvastatin - V2(Pn3m) lattice size increased at 5-15%. | – | 131 | V2(Pn3m) + V2(Im3m) | 122 | Lattice size [1, 10]: 148 Å; logP [2]: 1.92
10 | CNCC(O)c1ccc(O)c(O)c1 (stereo not drawn) [Adrenaline] | – | – | – | – | – | – | – | – | – | – | – | – | passage through the porcine oral mucosa in a Ussing chamber [3]: expected to pass through the porcine oral mucosa; logP [2]: −0.5 to −1.4
